# Test system: Receptor-type tyrosine-protein kinase FLT3 (Homo sapiens), P36888 [UNDEFINED MUTATION]
# Experiment: not given
# Details: BaF3
# Chain of Receptor-type tyrosine-protein kinase FLT3 (Homo sapiens), P36888 [UNDEFINED MUTATION] (P36888 whole entry, looked up, change not shown): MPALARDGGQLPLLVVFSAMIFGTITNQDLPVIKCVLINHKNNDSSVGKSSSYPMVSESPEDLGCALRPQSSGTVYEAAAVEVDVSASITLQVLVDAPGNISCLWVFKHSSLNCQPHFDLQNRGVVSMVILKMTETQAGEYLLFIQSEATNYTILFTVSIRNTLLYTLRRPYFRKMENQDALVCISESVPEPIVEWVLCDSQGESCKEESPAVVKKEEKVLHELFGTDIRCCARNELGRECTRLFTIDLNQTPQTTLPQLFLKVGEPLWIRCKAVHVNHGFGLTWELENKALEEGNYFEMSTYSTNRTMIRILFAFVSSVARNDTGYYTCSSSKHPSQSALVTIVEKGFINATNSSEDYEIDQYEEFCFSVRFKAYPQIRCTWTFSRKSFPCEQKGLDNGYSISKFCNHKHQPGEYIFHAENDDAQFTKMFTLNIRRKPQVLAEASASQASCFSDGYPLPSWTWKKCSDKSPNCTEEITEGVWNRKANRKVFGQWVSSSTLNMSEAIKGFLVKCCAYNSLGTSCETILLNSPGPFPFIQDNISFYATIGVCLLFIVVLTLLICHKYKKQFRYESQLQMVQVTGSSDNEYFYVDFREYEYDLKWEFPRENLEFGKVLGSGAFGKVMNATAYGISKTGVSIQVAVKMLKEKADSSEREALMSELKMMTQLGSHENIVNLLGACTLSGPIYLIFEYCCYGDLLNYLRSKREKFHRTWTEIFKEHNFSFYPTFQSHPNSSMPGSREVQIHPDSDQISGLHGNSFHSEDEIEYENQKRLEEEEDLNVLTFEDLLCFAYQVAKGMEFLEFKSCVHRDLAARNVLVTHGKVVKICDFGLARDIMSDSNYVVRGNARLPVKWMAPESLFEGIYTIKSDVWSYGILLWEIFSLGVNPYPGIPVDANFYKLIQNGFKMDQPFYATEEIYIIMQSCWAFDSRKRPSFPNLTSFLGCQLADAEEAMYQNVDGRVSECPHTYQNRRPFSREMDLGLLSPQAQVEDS
row,GI50 [nM],Structure (SMILES)
1,1.5,CC(C)(C)c1cc(NC(=O)Nc2ccc(-c3cn(-c4ccc(OCCN5CCOCC5)cc4)nn3)c(F)c2)no1
2,55.4,CC(C)(C)c1cc(NC(=O)Nc2ccc(-c3cn(-c4ccc(OCCN5CCOCC5)c([N+](=O)[O-])c4)nn3)cc2)no1
3,165,CC(C)(C)c1cc(NC(=O)Nc2ccc(-c3cn(-c4ccc(OCCN5CCOCC5)cc4)nn3)cc2Cl)no1
4,2.8,CC(C)(C)c1cc(NC(=O)Nc2ccc(-c3cn(-c4ccc(OCCN5CCOCC5)c(Cl)c4)nn3)cc2)no1
5,40.5,CC(C)(C)c1cc(NC(=O)Nc2ccc(-c3cn(-c4ccc(OCCN5CCOCC5)cc4C(F)(F)F)nn3)cc2)no1
6,4.2,CC(C)(C)c1cc(NC(=O)Nc2ccc(-c3cn(-c4ccc(OCCN5CCOCC5)cc4)nn3)cc2F)no1
7,2.3,CC(C)(C)c1cc(NC(=O)Nc2ccc(-c3cn(-c4ccc(OCCN5CCOCC5)cc4Br)nn3)cc2)no1

# The remaining lines, values behind:
row,Structure (SMILES),GI50 [nM]
1,COc1cc(-c2cn(-c3ccc(OCCN4CCOCC4)cc3)nn2)ccc1NC(=O)Nc1cc(C(C)(C)C)on1,851
2,Cc1cc(-c2cn(-c3ccc(OCCN4CCOCC4)cc3)nn2)ccc1NC(=O)Nc1cc(C(C)(C)C)on1,61.5
3,CC(C)(C)c1cc(NC(=O)Nc2ccc(-c3cn(-c4ccc(OCCN5CCOCC5)cc4)nn3)c(Cl)c2)no1,3
4,Cc1cc(-n2cc(-c3ccc(NC(=O)Nc4cc(C(C)(C)C)on4)cc3)nn2)ccc1OCCN1CCOCC1,1
5,CC(C)(C)c1cc(NC(=O)Nc2ccc(-c3cn(-c4ccc(OCCN5CCOCC5)c(C(F)(F)F)c4)nn3)cc2)no1,48.5
6,CC(C)(C)c1cc(NC(=O)Nc2ccc(-c3cn(-c4ccc(OCCCN5CCOCC5)cc4Cl)nn3)cc2)no1,1.5

# Test system: not listed separately
# Experiment: in vitro
# Details: mouse, BaF3 cells
# Description: Cytotoxicity against human BAF3 cells assessed as growth inhibition incubated for 72 hrs by CCK8 assay
row,GI50 at 72 h [nM],Structure (SMILES)
1,> 3000,CC(C)(C)c1cc(NC(=O)Nc2ccc(-c3cn(-c4ccc(OCCN5CCOCC5)cc4)nn3)c(F)c2)no1
2,> 3000,CC(C)(C)c1cc(NC(=O)Nc2ccc(-c3cn(-c4ccc(OCCN5CCOCC5)cc4)nn3)cc2)no1
3,> 3000,CC(C)(C)c1cc(NC(=O)Nc2ccc(-c3cn(-c4ccc(OCCN5CCOCC5)c([N+](=O)[O-])c4)nn3)cc2)no1
4,> 3000,CC(C)(C)c1cc(NC(=O)Nc2ccc(-c3cn(-c4ccc(OCCN5CCOCC5)cc4)nn3)cc2Cl)no1
5,1380,CC(C)(C)c1cc(NC(=O)Nc2ccc(-c3cn(-c4ccc(OCCN5CCOCC5)c(Cl)c4)nn3)cc2)no1
6,> 3000,CC(C)(C)c1cc(NC(=O)Nc2ccc(-c3cn(-c4ccc(OCCN5CCOCC5)cc4C(F)(F)F)nn3)cc2)no1
7,> 3000,CC(C)(C)c1cc(NC(=O)Nc2ccc(-c3cn(-c4ccc(OCCN5CCOCC5)cc4)nn3)cc2F)no1
8,2020,CC(C)(C)c1cc(NC(=O)Nc2ccc(-c3cn(-c4ccc(OCCN5CCOCC5)cc4Br)nn3)cc2)no1

# Further lines, the molecule ahead of its results:
row,Structure (SMILES),GI50 at 72 h [nM]
1,COc1cc(-c2cn(-c3ccc(OCCN4CCOCC4)cc3)nn2)ccc1NC(=O)Nc1cc(C(C)(C)C)on1,1510
2,Cc1cc(-c2cn(-c3ccc(OCCN4CCOCC4)cc3)nn2)ccc1NC(=O)Nc1cc(C(C)(C)C)on1,2160
3,CC(C)(C)c1cc(NC(=O)Nc2ccc(-c3cn(-c4ccc(OCCN5CCOCC5)cc4)nn3)c(Cl)c2)no1,> 3000
4,Cc1cc(-n2cc(-c3ccc(NC(=O)Nc4cc(C(C)(C)C)on4)cc3)nn2)ccc1OCCN1CCOCC1,1970
5,CC(C)(C)c1cc(NC(=O)Nc2ccc(-c3cn(-c4ccc(OCCN5CCCC5)cc4Cl)nn3)cc2)no1,2040
6,CC(C)(C)c1cc(NC(=O)Nc2ccc(-c3cn(-c4ccc(OCCN5CCCCC5)cc4Cl)nn3)cc2)no1,1960
7,CC(C)(C)c1cc(NC(=O)Nc2ccc(-c3cn(-c4ccc(OCCN5CCOCC5)c(C(F)(F)F)c4)nn3)cc2)no1,1520
8,CC(C)(C)c1cc(NC(=O)Nc2ccc(-c3cn(-c4ccc(OCCN5CCOCC5)cc4F)nn3)cc2)no1,> 3000
9,COc1cc(-n2cc(-c3ccc(NC(=O)Nc4cc(C(C)(C)C)on4)cc3)nn2)ccc1OCCN1CCOCC1,> 3000
10,CN(C)CCOc1ccc(-n2cc(-c3ccc(NC(=O)Nc4cc(C(C)(C)C)on4)cc3)nn2)c(Cl)c1,> 3000
11,CC(C)(C)c1cc(NC(=O)Nc2ccc(-c3cn(-c4ccc(OCCCN5CCOCC5)cc4Cl)nn3)cc2)no1,> 3000

# Test system: Receptor-type tyrosine-protein kinase FLT3 (Homo sapiens), P36888 [UNDEFINED MUTATION]
# Experiment: not given
# Details: MV4-11
row,GI50 [nM],Structure (SMILES)
1,10.3,CC(C)(C)c1cc(NC(=O)Nc2ccc(-c3cn(-c4ccc(OCCN5CCOCC5)cc4)nn3)c(F)c2)no1
2,4,CC(C)(C)c1cc(NC(=O)Nc2ccc(-c3cn(-c4ccc(OCCN5CCOCC5)cc4)nn3)cc2)no1
3,39.2,CC(C)(C)c1cc(NC(=O)Nc2ccc(-c3cn(-c4ccc(OCCN5CCOCC5)c([N+](=O)[O-])c4)nn3)cc2)no1
4,498,CC(C)(C)c1cc(NC(=O)Nc2ccc(-c3cn(-c4ccc(OCCN5CCOCC5)cc4)nn3)cc2Cl)no1
5,21.5,CC(C)(C)c1cc(NC(=O)Nc2ccc(-c3cn(-c4ccc(OCCN5CCOCC5)c(Cl)c4)nn3)cc2)no1
6,58.6,CC(C)(C)c1cc(NC(=O)Nc2ccc(-c3cn(-c4ccc(OCCN5CCOCC5)cc4C(F)(F)F)nn3)cc2)no1
7,19.6,CC(C)(C)c1cc(NC(=O)Nc2ccc(-c3cn(-c4ccc(OCCN5CCOCC5)cc4)nn3)cc2F)no1
8,5.7,CC(C)(C)c1cc(NC(=O)Nc2ccc(-c3cn(-c4ccc(OCCN5CCOCC5)cc4Br)nn3)cc2)no1

# Second part, the molecule before the results:
row,Structure (SMILES),GI50 [nM]
1,COc1cc(-c2cn(-c3ccc(OCCN4CCOCC4)cc3)nn2)ccc1NC(=O)Nc1cc(C(C)(C)C)on1,1220
2,Cc1cc(-c2cn(-c3ccc(OCCN4CCOCC4)cc3)nn2)ccc1NC(=O)Nc1cc(C(C)(C)C)on1,344
3,CC(C)(C)c1cc(NC(=O)Nc2ccc(-c3cn(-c4ccc(OCCN5CCOCC5)cc4)nn3)c(Cl)c2)no1,12
4,Cc1cc(-n2cc(-c3ccc(NC(=O)Nc4cc(C(C)(C)C)on4)cc3)nn2)ccc1OCCN1CCOCC1,7.1
5,CC(C)(C)c1cc(NC(=O)Nc2ccc(-c3cn(-c4ccc(OCCN5CCCC5)cc4Cl)nn3)cc2)no1,5
6,CC(C)(C)c1cc(NC(=O)Nc2ccc(-c3cn(-c4ccc(OCCN5CCCCC5)cc4Cl)nn3)cc2)no1,5.6
7,CC(C)(C)c1cc(NC(=O)Nc2ccc(-c3cn(-c4ccc(OCCN5CCOCC5)c(C(F)(F)F)c4)nn3)cc2)no1,106
8,CC(C)(C)c1cc(NC(=O)Nc2ccc(-c3cn(-c4ccc(OCCN5CCOCC5)cc4F)nn3)cc2)no1,5.1
9,COc1cc(-n2cc(-c3ccc(NC(=O)Nc4cc(C(C)(C)C)on4)cc3)nn2)ccc1OCCN1CCOCC1,4.8
10,CN(C)CCOc1ccc(-n2cc(-c3ccc(NC(=O)Nc4cc(C(C)(C)C)on4)cc3)nn2)c(Cl)c1,4
11,CC(C)(C)c1cc(NC(=O)Nc2ccc(-c3cn(-c4ccc(OCCCN5CCOCC5)cc4Cl)nn3)cc2)no1,6.2
